Test results from US20050100555A1, “Homing peptides” (KING'S COLLEGE LONDON An Institute Incorporated by Royal …, priority 2001, published 2005).
Entries after “also recorded” stand apart in the source; their conditions may differ. No end group written: not given here.

How the values were obtained:
human synovial grafts [1] = conditions: 1×10^11 pfu i.v., double transplanted RA synovium and skin
Protocol: Selection in vivo of synovial specific phage. Synovial homing phage were isolated by 3-4 cycles of enrichment in SCID mice transplanted with human tissues at 4-6 weeks of age. Four weeks post-transplantation the pep-PDL library (1×10^11 pfu in 200 μL saline final volume) was injected into the tail vein of anaesthetized animals. After 15 minutes (in vivo phage circulation time), while under deep/terminal anaesthesia (Sagatal, 5 μg/mouse, Rhone Merieux, France) the mice were perfused via the left ventricle with approximately 50-100 mL of saline to ensure phage clearance from the blood pool. Grafts and various mouse organs were then extracted and divided into two aliquots, weighed and processed as necessary for phage recovery and histological analysis. The aliquot assigned for immunohistology was embedded in Optimal Cutting Temperature compound (OCT, Miles, Calif.), snap frozen in liquid nitrogen cooled isopentane (BDH) and stored at −70° C. until analysis. The aliquot used for phage recovery was washed three times in TBS (150 mM NaCl, 50 nm Tris, pH7.4, Sigma, Poole, UK) then homogenized in 1 ml of TBS containing protease inhibitor cocktail (Sigma). […] After a 37° C. overnight incubation the peptide phage, appearing as blue plaques, were counted and the yield of phage localising to each individual tissue determined. […]

[2] = system: human synovium and skin grafts (OA patient); conditions: OA synovium and skin double transplants, 15 min recirculation
Protocol: To assess whether the synovial homing properties were due to the intrinsic characteristics of the synovium or related to the disease status (e.g. RA vs OA), pooled clones recovered from the last round of in vivo selection (3rd and 4th round of the experiments described above) were tested in recirculation studies in vivo using SCID animals double transplanted with skin and human synovium from a patient with OA. As previously, equivalent amounts of strep-clone-1 phage were injected intravenously into control animals.

human synovial grafts [3] = assay: Synovial homing of single phage clones in SCID mice transplanted with human synovium; assay type: in vivo; conditions: 1×10^11 pfu i.v., 15 minutes recirculation; for localization of phage clone to synovial grafts in comparison to strep-clone-1 phage control: SCID mice with human synovium grafts
Protocol: (§1) Selection in vivo of synovial specific phage.
Confirmation of synovial homing specificity in single phage clones displaying consensus motifs. 1×10^11 pfu (200 μL saline fmal volume) of three single phage clones (1.23, 2.10 and 3.1) displaying consensus motifs or the strep-clone-1 phage control were and injected intravenously in separate animals transplanted with human synovium as described in ‘Selection in vivo ofsynovial specific phage’. The number of study and control clone phage localising to synovial grafts was determined as described in the same section.

[4] = system: human synovial grafts (cognate synovial MVE ligand); assay: Competitive localisation to human synovial grafts of synthetic biotinylated peptide against parent 3.1 phage clone; assay type: in vivo; conditions: for effect on graft localisation of the 3.1 phage clone: 50, 250 and 500 μg/mouse with 3.1 phage clone
Protocol: as §1
(§2) Competitive localisation to human synovial grafts of synthetic biotinylated peptide […] against the parent 3.1 phage clone. SCID mice were transplanted with human synovial tissue and injected intravenously, as describe above for the in vivo selection experiments, with 1×10^11 tpfu of 3.1 phage clone in presence or absence of increasing concentrations of the biotinylated CKSTHRDLC synthetic peptide (50, 250 and 500 μg/mouse in 200 μL dose volume) or the biotinylated CGTWSHPQC synthetic peptide control. Controls also included animals injected with 1×10^11 pfu of strep-clone-1 or biotin alone. After 15 minutes circulation time, mice were perfused and the number of phage in the transplants determined as described above. Histological analysis was performed as described below.

[5] = system: human microvascular endothelium in synovial grafts; assay: Assessment of graft localization of biotinylated peptides (ABC-AP immunohistology); assay type: in vivo; conditions: for localisation of biotinylated peptide to synovial grafts (immunoreactivity): 500 μg/mouse with 3.1 phage clone, ABC-AP, Vector Red
Protocol: as §2
Assessment of graft localization of biotinylated peptides. The graft localisation of the biotinylated CKSTHRDLC synthetic peptide was assessed by using the alkaline phosphatase avidin biotin complex (ABC-AP) detection system (Dako, UK) and visualised by Vector Red substrate (Novacastra, UK).

murine kidney = assay: Phage recovery from murine kidney in the competitive localisation experiment; assay type: in vivo, mouse; conditions: with or without study or control peptide
Protocol: as §1, §2

Substance | localization of phage clone to synovial grafts in comparison to strep-clone-1 phage control (human synovial grafts [3]) | effect on graft localisation of the 3.1 phage clone [4] | localisation of biotinylated peptide to synovial grafts (immunoreactivity) [5] | other results
C-G-T-W-S-H-P-Q-C [strep-clone-1] | – | – | – | localisation of phage to synovial grafts, skin grafts and mouse kidney (human synovial grafts [1]): comparable low levels of localisation in all three tissues; number of phage recovered from synovial grafts versus skin grafts [2]: virtually the same
CDRLNHQFC [2.10] | significantly greater localization | – | – | –
CGTWSHPQC (cysteine pairing not given here; also: biotinylated, site not given here) [reference compound] | – | no significant effect | no specific immunoreactivity | –
CKSTHDRLC (not fully specified; cysteine pairing not given here; also: biotinylated, site not given here) | – | dramatically inhibits in a dose dependent fashion | strongly localises in vivo to synovial grafts | inhibition of graft localisation of the parent 3.1 phage clone ([4]; at maximal dose (500 μg/mouse i.v.), 15 minutes circulation): over 80%; site of peptide binding within synovial grafts (double staining with anti-human vWf-FITC) ([5]; 500 μg/mouse): specific immunoreactivity co-localising with human vasculature; also recorded: binds principally to human microvascular endothelium
CKSTHDRLC [3.1] | significantly greater localization | – | – | increase of synovial graft localization over the control strep-clone-1 phage (human synovial grafts [3]): approximately 10 fold; graft localisation relative to strep-clone-1 control ([4]; phage alone, 15 minutes circulation): approximately nine times more; level of phage localisation to murine kidney (murine kidney): only minimal ‘background’ localisation
CTHSSATQC [1.23] | significantly greater localization | – | – | –
